Consider three compounds from ChEMBL document CHEMBL3763075, “Evaluation of phenylcyclopropylamine compounds by enzymatic assay of lysine-specific demethylase 2 in the presence of NPAC peptide” (Bioorg Med Chem Lett, 2016).

This test addresses T1, Lysine-specific histone demethylase 2 (Homo sapiens, UniProt Q8NB78).
T1 sequence (Q8NB78 whole entry): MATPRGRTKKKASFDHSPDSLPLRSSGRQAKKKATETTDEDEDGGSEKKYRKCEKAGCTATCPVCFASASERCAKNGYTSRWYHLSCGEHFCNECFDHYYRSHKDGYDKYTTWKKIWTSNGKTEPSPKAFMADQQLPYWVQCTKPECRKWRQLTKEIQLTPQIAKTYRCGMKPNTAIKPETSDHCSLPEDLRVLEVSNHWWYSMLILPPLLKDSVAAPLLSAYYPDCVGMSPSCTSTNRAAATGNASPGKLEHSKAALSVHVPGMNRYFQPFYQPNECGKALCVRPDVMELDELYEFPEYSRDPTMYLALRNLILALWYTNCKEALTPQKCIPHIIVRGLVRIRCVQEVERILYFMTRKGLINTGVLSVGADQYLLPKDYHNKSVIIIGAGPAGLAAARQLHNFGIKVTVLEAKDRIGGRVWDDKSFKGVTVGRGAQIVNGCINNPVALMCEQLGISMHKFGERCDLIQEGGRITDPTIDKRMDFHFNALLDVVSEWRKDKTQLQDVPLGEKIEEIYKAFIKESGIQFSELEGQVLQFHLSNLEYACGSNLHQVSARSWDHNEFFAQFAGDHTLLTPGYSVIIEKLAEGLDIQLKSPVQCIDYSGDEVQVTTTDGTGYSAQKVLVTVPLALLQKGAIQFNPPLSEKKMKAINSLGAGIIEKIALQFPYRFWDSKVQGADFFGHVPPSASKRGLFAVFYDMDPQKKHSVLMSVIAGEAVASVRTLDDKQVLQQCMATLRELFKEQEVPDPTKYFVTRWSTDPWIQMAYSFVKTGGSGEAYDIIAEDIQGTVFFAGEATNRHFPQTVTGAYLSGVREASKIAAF
Description: Inhibition of recombinant human LSD2 using H3K4 peptide as substrate assessed as decrease in H3K4 demethylation after 1 hr by mass spectroscopic analysis
The term IC50 denotes the point on the concentration scale where inhibition reaches its midpoint. A high value points to a need for much substance. For `O=C(N[C@@H](CCCCNC1CC1c1ccccc1)C(=O)NCc1ccccc1)c1ccc(-c2ccccc2)cc1` (stereo partly drawn), the IC50 was 230 µM. For `O=C(N[C@@H](CCCCNC1CC1c1ccccc1)C(=O)NCc1cccc(C(F)(F)F)c1)c1ccc(-c2ccccc2)cc1` (stereo partly drawn) the value was above 540 µM.

In turn, `O=C(N[C@@H](CCCCNC1CC1c1ccccc1)C(=O)NCc1ccc(Cl)cc1)c1ccc(-c2ccccc2)cc1` (stereo partly drawn) showed an IC50 of 250 µM.
